Test [1] relates to rats. The experiment in a line: Acute and tonic pain: formalin test, score (Example 13). The test is classed as in vivo, rat. The settings on record: Morphine 4 mg/kg s.c. The method, then: Formalin Test. 2.5% formalin solution was injected by subplantar route into the right hind paw. Scoring of pain behavior was performed in rats for 36 minutes every 3 minutes according to the following scores:
0=normal behavior of the injected hind limb to support the body
1=slight touching of the injected paw on the floor to lightly support or not support the body
2=total withdrawal of the injected paw
3=licking, biting or shaking of the injected paw

In test [2] the test system is rats. Description: Post-operative pain: Brennan model, electronic Von Frey test (Example 13). The class given is in vivo, rat. To be noted: Morphine 4 mg/kg s.c. The source says:
Surgery: Surgery was done under gas anesthesia (2.5% isoflurane/3 L/min). For all rats, the plantar aspect of the left hind paw was exposed and a 1 cm longitudinal incision was made using a surgical blade, through the skin and fascia of the plantar aspect of the foot, starting 0.5 cm from the proximal edge of the heel and extending toward the toes. The plantaris muscle was elevated and incised longitudinally whereas the insertions remained intact. After hemostasis with gentle pressure, the skin was stitched up with two sutures. After surgery, animals recovered in their cages.
Electronic Von Frey Test: Tactile allodynia was assessed using the electronic Von Frey test 24 h after surgery. […] The apparatus exerted a steady force on the hind paws. […] Each reaction threshold measurement was repeated three times for both hind paws with intervals of approximately 2 to 3 mins.

Test [3] has as its system Sprague-Dawley rats, streptozotocin model. Description: Rat model of diabetic neuropathy (STZ model), paw pressure test (Example 14). The test is classed as in vivo. To be noted: Compound I-1 10 mg/kg p.o., gabapentin 100 mg/kg p.o., morphine 4 mg/kg s.c., mean±s.e.m.
In test [4] the test system is rats. The experiment in a line: Acute and tonic pain: healthy rats, tail flick test (Example 13). To be noted: Morphine 4 mg/kg s.c. A general note: In hot-plate and tail-flick tests a longer latency is read as antinociception.
Method: Tail Flick Test. A radiant heat was applied on the tail. When the rat felt discomfort, it reacted by a sudden tail movement (tail flick) which automatically stopped the stimulation and the timer for the measurement by the animal reaction time or nociceptive reaction latency (period from the beginning of the stimulation until detection of the response of the animal). A cut-off was previously fixed at 10 sec in order to prevent tissue damage.
(§1) Testing: 120 minutes after treatment. N=4/model/test. Results are expressed for each group as a percentage of activity calculated from the mean value of the vehicle-treated animals and compared to naïve animals, control paw, or cut-off value, depending on the test.
In test [5] the test system is rats. Description: Acute and tonic pain: healthy rats, paw pressure test (Example 13). The settings on record: Morphine 4 mg/kg s.c.
Method: Paw Pressure Test. Static mechanical hyperalgesia is measured. This test requires the application of an increasing pressure on the hind paws between a flat surface and a blunt pointer. To evaluate the analgesic action of a compound, one hind paw of the animal was inflamed by an injection or injured by ligation, while the other hind paw was not injured or inflamed. The apparatus exerted a steadily increasing force on the hind paws. The reaction threshold was determined as the pressure (g) required to elicit paw withdrawal and/or vocalization. The animals were gently handled by the experimenter and static mechanical hyperalgesia were assessed two times for both hind paws.
as §1

Data on 1 compound can be found in US11731977B2, “SGC stimulators” (Cyclerion Therapeutics, Inc., priority 2016, dated 2023).

SMILES strings stand for the structures.

As for `CN1CC[C@]23c4c5ccc(O)c4O[C@H]2[C@@H](O)C=C[C@H]3[C@H]1C5` [Morphine, reference compound], the “% of activity vs. vehicle” value is recorded as 57% in the test with rats [1] (Formalin test - score (early phase)); 38% in the test with rats [1] (Formalin test - score (late phase)); 88% with rats [2]; 66% with rats [4]; 69% in the test with rats [5]. For the same compound, the “nociceptive threshold (paw pressure test)” value is 420 ± 35 g in test [3] (D18, 60 min post administration); 317 ± 27.6 g in test [3] (D18, 120 min post administration); 283 ± 16.7 g in test [3] (D21, 120 min after dosing).
